Experimental data reported in patent US9890175B2, “Taxane compound, and preparation method and use thereof” (JIANGSU TASLY DIYI PHARMACEUTICAL CO., LTD., priority 2013, dated 2018).
Like-named read-outs stand apart in the source and are kept apart here.

Key:
[1] = Caco-2 cell monolayer membrane transport assay (Papp and recovery); format: in vitro ADME; details: human; for Papp B→A: Caco-2, Papp B-A
Description: Caco-2 Cell Monolayer Membrane Transport Assay
Human-derived colorectal adenocarcinoma cell line Caco-2 cell monolayer model was used to study the bidirectional transport of the target compounds from the apical (AP) side to the basolateral (BL) side and from BL side to AP side. HPLC was used for quantitative analysis to calculate transport parameters, apparent permeability coefficient (Papp) and the efflux ratio.

[2] = system: A2780 ovarian cancer; assay: MTT proliferation inhibition, A2780; format: cell-based; details: Homo sapiens, A2780, read-out: Proliferation inhibition rate, A2780 Ovarian cancer
Description: (§1) 1. Cytotoxicity Assay Using Human Tumor Cell Lines
(§2) Paclitaxel was used as the positive drug.

[3] = system: Hela cervical cancer; assay: MTT proliferation inhibition, HeLa; format: cell-based; details: Homo sapiens, read-out: Proliferation inhibition rate, HeLa Uterin cancer
Description: as §1, §2

[4] = system: MCF-7 breast cancer cells; assay: MTT proliferation inhibition, MCF-7; format: cell-based; details: Homo sapiens, MCF7, read-out: Proliferation inhibition rate, MCF-7 Breast cancer
Description: as §1, §2

[5] = system: NCI-H460 non-small cell lung cancer; assay: MTT proliferation inhibition, NCI-H460; format: cell-based; details: Homo sapiens, NCI-H460, read-out: Proliferation inhibition rate, NCI-H460 Non-small cell lung cancer
Description: as §1, §2

[6] = system: A375 melanoma; assay: MTT proliferation inhibition, A375; format: cell-based; details: Homo sapiens, A-375, read-out: Proliferation inhibition rate, A375 Melanoma
Description: as §1, §2

[7] = system: HT-29 colon cancer; assay: MTT proliferation inhibition, HT-29; format: cell-based; details: Homo sapiens, HT-29, read-out: Proliferation inhibition rate, HT29 Colon cancer
Description: as §1, §2

[8] = system: HL-60 leukemia; assay: MTT proliferation inhibition, HL-60; format: cell-based; details: Homo sapiens, HL-60, read-out: Proliferation inhibition rate, HL60 Leukemia
Description: as §1, §2

[9] = system: Du145 prostate cancer; assay: MTT proliferation inhibition, Du145; format: cell-based; details: Homo sapiens, DU-145, read-out: Proliferation inhibition rate, DU145 Prostate cancer
Description: as §1, §2

[10] = system: MDA-MB-436 breast cancer cells; assay: MTT proliferation inhibition, MDA-MB-436; format: cell-based; details: Homo sapiens, MDA-MB-436, read-out: Proliferation inhibition rate, MDA-MB-436 Breast cancer
Description: as §1, §2

[11] = system: LN-18; assay: MTT proliferation inhibition, LN-18; format: cell-based; details: Homo sapiens, LN-18, read-out: Proliferation inhibition rate, LN-18 Gastric canser
Description: as §1, §2

[12] = system: BGC-823 gastric cancer; assay: MTT proliferation inhibition, BGC-823; format: cell-based; details: Homo sapiens, BGC-823, read-out: Proliferation inhibition rate, BGC-823 Gastric cancer
Description: as §1, §2

[13] = system: A549 non-small cell lung cancer; assay: MTT proliferation inhibition, A549; format: cell-based; details: Homo sapiens, A549, read-out: Proliferation inhibition rate, A549 Non-small cell lung cancer
Description: as §1, §2

[14] = system: B16 melanoma; assay: MTT proliferation inhibition, B16; format: cell-based; details: B16, read-out: Proliferation inhibition rate, B16 Melanoma
Description: as §1, §2

[15] = system: HCT 116 colon cancer; assay: MTT proliferation inhibition, HCT 116; format: cell-based; details: Homo sapiens, HCT-116, read-out: Proliferation inhibition rate, HCT 116 Colon cancer
Description: as §1, §2

[16] = system: K562 leukemia; assay: MTT proliferation inhibition, K562; format: cell-based; details: Homo sapiens, K562, read-out: Proliferation inhibition rate, K562 Leukemia
Description: as §1, §2

[17] = system: LNCaP prostate cancer; assay: MTT proliferation inhibition, LNCaP; format: cell-based; details: Homo sapiens, read-out: Proliferation inhibition rate, LNCaP Prostate cancer
Description: as §1, §2

[18] = system: breast cancer cell line MCF-7; assay: IC50 on breast cancer cell line MCF-7; format: cell-based; details: Homo sapiens, MCF7, 72 h, read-out: MCF-7 (IC50, nM)
Description: From the activity evaluation data of the above-mentioned preliminary screen, it can be seen that the series of taxanes derivatives synthesized in the present invention have activity. Afterward, the compounds are investigated to examine their IC50 values on breast cancer cell line MCF-7. […] Experiments for each compound were independently repeated for three times and multiple holes were used in each experiment. The exposure time of drugs was 72 hours.

[19] = Caco-2, Recovery rate in mass, Mean
[20] = Caco-2, Recovery rate in mass, Sample-01
[21] = Caco-2, Recovery rate in mass, Sample-02
[22] = Caco-2, Caco-2, A-B, Mean, read-out: Recovery rate in mass, Mean
[23] = Caco-2, Caco-2, A-B, Sample-01, read-out: Papp A-B, Sample-01
[24] = Caco-2, Caco-2, A-B, Sample-01, read-out: Recovery rate in mass, Sample-01
[25] = Caco-2, Caco-2, A-B, Sample-02, read-out: Papp A-B, Sample-02
[26] = Caco-2, Caco-2, A-B, Sample-02, read-out: Recovery rate in mass, Sample-02
[27] = Caco-2, Caco-2, A-B, Mean, read-out: Papp A-B, Mean

Row | SMILES | inhibition at 1 µM [2] [%] | inhibition at 1 µM [3] [%] | inhibition at 1 µM [4] [%] | inhibition at 1 µM [5] [%] | inhibition at 1 µM [6] [%] | inhibition at 1 µM [7] [%] | inhibition at 1 µM [8] [%] | inhibition at 1 µM [9] [%] | inhibition at 1 µM [10] [%] | inhibition at 1 µM [11] [%] | inhibition at 1 µM [12] [%] | inhibition at 1 µM [13] [%] | inhibition at 1 µM [14] [%] | inhibition at 1 µM [15] [%] | inhibition at 1 µM [16] [%] | inhibition at 1 µM [17] [%] | IC50 [18] [nM] | recovery [1, 22] [%] | Papp A→B [1, 23] [×10⁻⁶ cm/s] | recovery [1, 24] [%] | further results
1 | CC[C@H]1OC(=O)[C@H](C)[C@@H](O[C@H]2C[C@@](C)(OC)[C@@H](O)[C@H](C)O2)[C@H](C)[C@@H](O[C@@H]2O[C@H](C)C[C@H](N(C)C)[C@H]2O)[C@](C)(O)C[C@@H](C)C(=O)[C@H](C)[C@@H](O)[C@]1(C)O [Erythromycin, reference compound] | – | – | – | – | – | – | – | – | – | – | – | – | – | – | – | – | – | – | – | – | recovery [1, 19]: 99%; recovery [1, 20]: 99.6%; recovery [1, 21]: 98.5%
2 | COCCc1ccc(OCC(O)CNC(C)C)cc1 (centres unmarked) [Metoprolol, reference compound] | – | – | – | – | – | – | – | – | – | – | – | – | – | – | – | – | – | – | – | – | Papp A→B ([1]; Caco-2, Papp A-B, Mean): 27.2 ×10⁻⁶ cm/s; Papp A→B ([1]; Caco-2, Papp A-B, Sample-01): 28.1 ×10⁻⁶ cm/s; Papp A→B ([1]; Caco-2, Papp A-B, Sample-02): 26.2 ×10⁻⁶ cm/s; Papp B→A ([1]; Mean): 22.7 ×10⁻⁶ cm/s; Papp B→A ([1]; Sample-01): 22.4 ×10⁻⁶ cm/s; Papp B→A ([1]; Sample-02): 23 ×10⁻⁶ cm/s; recovery [1, 19]: 99%; recovery [1, 20]: 103%; recovery [1, 21]: 95.5%
3 | CO[C@H]1C(=O)[C@]2(C)[C@@H](OC)C[C@H]3OC[C@@]3(OC(C)=O)[C@H]2[C@H](OC(=O)c2ccccc2)[C@]23OC(=O)O[C@H]2[C@H](OC(=O)[C@H](O)[C@@H](NC(=O)c2ccccc2)c2ccccc2)C(C)=C1C3(C)C [PCMI-02] | 94.7 | 98.2 | 93.5 | 82.2 | 89.8 | 89 | 95.9 | 84.7 | 82.6 | 96.6 | 94.2 | 79.6 | 84.1 | 66.4 | 94.7 | 83.7 | 6.93 ± 0.12 | 50.8 | 1.5 | 44.1 | Papp A→B [1, 25]: 1.47 ×10⁻⁶ cm/s; recovery [1, 26]: 57.4%
4 | CO[C@H]1C(=O)[C@]2(C)[C@@H](OC)C[C@H]3OC[C@@]3(OC(C)=O)[C@H]2[C@H](OC(=O)c2ccccc2)[C@]23OC(=O)O[C@H]2[C@H](OC(=O)[C@H](O)[C@H](CC(C)C)NC(=O)OC(C)(C)C)C(C)=C1C3(C)C [PCMI-05] | 94.6 | 99.5 | 84.9 | 82 | 87.9 | 87.9 | 97.2 | 83.9 | 74.5 | 93.3 | 90.9 | 67.8 | 71.5 | 58.7 | 91.4 | 81.6 | 4.04 ± 0.18 | 54.7 | 2.59 | 58.1 | Papp A→B [1, 25]: 2.56 ×10⁻⁶ cm/s; recovery [1, 26]: 51.3%
5 | CO[C@H]1C(=O)[C@@]2(C)[C@H]([C@H](OC(=O)c3ccccc3)[C@]34OC(=O)O[C@H]3[C@H](OC(=O)[C@H](O)[C@@H](NC(=O)OC(C)(C)C)c3ccccc3)C(C)=C1C4(C)C)[C@]1(OC(C)=O)CO[C@@H]1C[C@@H]2O [PCMI-06] | 96 | 99.9 | 86.3 | 84.7 | 94.4 | 87.3 | 97.7 | 89.1 | 77.8 | 94.6 | 93.6 | 75.5 | 80.7 | 67.1 | 93.3 | 83.6 | 16.24 ± 0.08 | 112 | 1.31 | 128 | Papp A→B [1, 27]: 1.22 ×10⁻⁶ cm/s; Papp A→B [1, 25]: 1.13 ×10⁻⁶ cm/s; recovery [1, 26]: 96.6%
6 | CO[C@H]1C[C@H]2OC[C@@]2(OC(C)=O)[C@H]2[C@H](OC(=O)c3ccccc3)[C@]34OC(=O)O[C@H]3[C@H](OC(=O)[C@H](O)[C@H](CC(C)C)NC(=O)OC(C)(C)C)C(C)=C([C@@H](OC(=O)N(C)C)C(=O)[C@]12C)C4(C)C [PCMI-10] | 95 | 99.9 | 85.9 | 81 | 94.2 | 86.2 | 97.5 | 88 | 77.3 | 93.7 | 91.2 | 70.5 | 71.4 | 65.6 | 90.6 | 85.9 | 6.44 ± 0.18 | 37.3 | 1.25 | 34 | Papp A→B [1, 25]: 0.89 ×10⁻⁶ cm/s; recovery [1, 26]: 40.5%
7 | CO[C@H]1C[C@H]2OC[C@@]2(OC(C)=O)[C@H]2[C@H](OC(=O)c3ccccc3)[C@]34OC(=O)O[C@H]3[C@H](OC(=O)[C@H](O)[C@@H](NC(=O)N(C)C)c3ccccc3)C(C)=C([C@@H](OC(=O)N(C)C)C(=O)[C@]12C)C4(C)C [PCMI-11] | 94.6 | 99.6 | 82.4 | 82.2 | 92.4 | 85.9 | 97.9 | 87.2 | 79 | 92.9 | 90.6 | 72.3 | 72.6 | 64.3 | 92.1 | 86.5 | 4.25 ± 0.06 | 79.9 | 1.24 | 79.7 | Papp A→B [1, 27]: 1.13 ×10⁻⁶ cm/s; Papp A→B [1, 25]: 1.02 ×10⁻⁶ cm/s; recovery [1, 26]: 80.2%
8 | COC(=O)O[C@H]1C(=O)[C@]2(C)[C@@H](OC)C[C@H]3OC[C@@]3(OC(C)=O)[C@H]2[C@H](OC(=O)c2ccccc2)[C@]23OC(=O)O[C@H]2[C@H](OC(=O)[C@H](O)[C@@H](NC(=O)OC(C)(C)C)c2ccccc2)C(C)=C1C3(C)C [PCMI-12] | 94.3 | 100 | 81.8 | 82.3 | 92 | 85.4 | 97.2 | 86.7 | 81.4 | 93.4 | 93 | 73.6 | 75.9 | 66.6 | 91.2 | 86.3 | 3.24 ± 0.04 | 27.8 to 39.5 | < 1.36 | 27.8 to 29.1 | Papp A→B [1, 27]: < 1.43 ×10⁻⁶ cm/s; Papp A→B [1, 25]: < 1.43 ×10⁻⁶ cm/s; recovery [1, 26]: 38.2 to 39.5%
9 | CCSC(=O)O[C@H]1C(=O)[C@]2(C)[C@@H](OC)C[C@H]3OC[C@@]3(OC(C)=O)[C@H]2[C@H](OC(=O)c2ccccc2)[C@]23OC(=O)O[C@H]2[C@H](OC(=O)[C@H](O)[C@@H](NC(=O)OC(C)(C)C)c2ccccc2)C(C)=C1C3(C)C [PCMI-13] | 95.9 | 100 | 84.7 | 86.2 | 93.1 | 87.4 | 97.5 | 90.7 | 81 | 93.8 | 94 | 77.1 | 81.2 | 68.5 | 94.2 | 86.3 | 3.89 ± 0.12 | 40.8 to 43.1 | < 1.3 | 40.8 to 42 | Papp A→B [1, 27]: < 1.67 ×10⁻⁶ cm/s; Papp A→B [1, 25]: < 1.67 ×10⁻⁶ cm/s; recovery [1, 26]: 41.5 to 43.1%
